In US9938269B2, “Inhibitor compounds of phosphodiesterase type 10A” (ABBVIE INC., priority 2011, dated 2018):
Structures can show the parent of a compound that is named as a salt.

Biological target: T1, PDE10A (human) (Homo sapiens, UniProt Q9Y233)
T1 construct: purchased BPS Bioscience
Test: Measurement of PDE activity (HTRF cAMP kit), human PDE10A
Assay type: biochemical
Details: PDE enzymatic reaction, substrate 20 nM for PDE10, 60 minutes at 29 C
Procedure: The recombinant PDE proteins are used in in vitro enzymatic reaction for measurement of PDE activity. These recombinant proteins, including PDE10A (human, rat and mouse PDE10) and isoforms of PDEs 1, 3, 4, and 5, were purchased from commercial vendor BPS Bioscience. The enzymatic activity of PDEs was determined by cAMP measurement kit from CisBio (IBA) using HTRF technology.
The PDE enzymatic reaction was carried out in assay buffer (20 mM Tris-HCl pH7.5, 10 mM MgCl2, 0.1% bovine serum albumin) containing enzyme and substrate. The PDE enzymes concentration ranged from 10 pM-250 pM, depending on each enzyme's specific activity. The substrate cyclic nucleotide (cAMP or cGMP) concentration used in the assay was 20 nM for PDE10, and 100 nM for other PDEs. The inhibitory effect of compound was determined by incubating various concentration of inhibitor in the enzymatic assay. Typically, compound was serial diluted in DMSO then further diluted in assay buffer. Next, the compound at varying concentration was mixed with PDE enzyme. The reaction was initiated by addition of cyclic nucleotide substrate, and incubated for 60 minutes at 29 C. The reaction was stopped by addition of lysis buffer from assay kit. The cAMP-d2 and anti-cAMP cryptate in the lysis buffer detected the level of cAMP left from the PDE hydrolysis reaction. The PDE activity is reversely correlated with the amount of cAMP left in the reaction and can be converted to the percent activity of an uninhibited control (100%). Thus, IC50 value of inhibitor can be obtained by plotting inhibitor concentration against PDE activity at that concentration.

T1 sequence (Q9Y233 whole entry): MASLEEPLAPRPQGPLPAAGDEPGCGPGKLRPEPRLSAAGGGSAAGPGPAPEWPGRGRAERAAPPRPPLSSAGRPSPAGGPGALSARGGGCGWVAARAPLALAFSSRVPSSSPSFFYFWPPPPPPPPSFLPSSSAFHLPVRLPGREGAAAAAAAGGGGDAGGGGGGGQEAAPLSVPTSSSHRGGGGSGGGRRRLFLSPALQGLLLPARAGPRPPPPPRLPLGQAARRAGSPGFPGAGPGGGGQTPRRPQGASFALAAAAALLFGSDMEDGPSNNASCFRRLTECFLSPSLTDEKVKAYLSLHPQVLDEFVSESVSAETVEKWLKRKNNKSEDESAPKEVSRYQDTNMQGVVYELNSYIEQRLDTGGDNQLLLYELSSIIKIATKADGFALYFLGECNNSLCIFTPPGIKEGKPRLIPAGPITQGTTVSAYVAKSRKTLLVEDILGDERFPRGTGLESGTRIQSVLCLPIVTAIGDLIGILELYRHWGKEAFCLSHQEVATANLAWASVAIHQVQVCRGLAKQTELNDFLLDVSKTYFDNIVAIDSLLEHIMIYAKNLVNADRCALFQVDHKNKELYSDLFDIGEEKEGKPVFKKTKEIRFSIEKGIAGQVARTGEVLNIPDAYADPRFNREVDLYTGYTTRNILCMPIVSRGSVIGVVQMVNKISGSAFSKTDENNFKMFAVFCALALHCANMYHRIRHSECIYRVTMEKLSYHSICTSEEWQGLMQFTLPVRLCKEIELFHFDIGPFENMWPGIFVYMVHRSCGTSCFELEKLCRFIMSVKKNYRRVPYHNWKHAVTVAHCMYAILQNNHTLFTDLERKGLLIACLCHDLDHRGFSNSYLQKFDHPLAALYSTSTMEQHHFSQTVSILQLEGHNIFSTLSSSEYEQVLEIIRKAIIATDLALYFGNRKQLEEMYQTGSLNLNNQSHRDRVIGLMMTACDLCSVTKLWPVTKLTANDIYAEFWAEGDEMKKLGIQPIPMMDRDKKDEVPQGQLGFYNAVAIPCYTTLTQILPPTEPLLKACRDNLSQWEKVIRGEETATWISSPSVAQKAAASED

SMILES: COc1ccc(-c2ccc(F)cc2)c2c1CN(CCc1ccc3ccccc3n1)C2=O [Example 187, 7-(4-Fluoro-phenyl)-4-methoxy-2-(2-quinolin-2-yl-ethyl)-2,3-dihydro-isoindol-1-one]
- IC50: < 0.1 µM

SMILES: O=C1c2cccc(-c3cccnc3)c2CN1CCc1ccc2ccccc2n1 [Example 201, 4-Pyridin-3-yl-2-(2-quinolin-2-yl-ethyl)-2,3-dihydro-isoindol-1-one]
- IC50: < 0.1 µM

SMILES: COc1ccc(-c2cccc3c2CN(CCc2ccc4ccccc4n2)C3=O)cc1 [Example 203, 4-(4-Methoxy-phenyl)-2-(2-quinolin-2-yl-ethyl)-2,3-dihydro-isoindol-1-one trifluoroacetate]
- IC50: < 0.1 µM

SMILES: COCCCOc1ccc(-c2ccncc2)c2c1CN(CCc1ccc3ccccc3n1)C2=O [Example 204, 4-(3-Methoxy-propoxy)-7-pyridin-4-yl-2-(2-quinolin-2-yl-ethyl)-2,3-dihydro-isoindol-1-one]
- IC50: < 0.1 µM

SMILES: CC(C)Oc1ccc(-c2ccncc2)c2c1CN(CCc1ccc3ccccc3n1)C2=O [Example 205, 4-Isopropoxy-7-pyridin-4-yl-2-(2-quinolin-2-yl-ethyl)-2,3-dihydro-isoindol-1-one]
- IC50: < 0.1 µM

SMILES: O=C1c2cccc(-c3cncnc3)c2CN1CCc1ccc2ccccc2n1 [Example 208, 4-Pyrimidin-5-yl-2-(2-quinolin-2-yl-ethyl)-2,3-dihydro-isoindol-1-one]
- IC50: < 0.1 µM

SMILES: Cn1c(CCN2Cc3cccc(-c4ccc(F)cc4)c3C2=O)nc2ccccc21 [Example 211, 7-(4-Fluoro-phenyl)-2-[2-(1-methyl-1H-benzoimidazol-2-yl)-ethyl]-2,3-dihydro-isoindol-1-one trifluoroacetate]
- IC50: 0.2 to 0.5 µM

SMILES: O=C1c2cccc(-c3ccc(F)cc3)c2CN1CCc1ccc2ccccc2n1 [Example 212, 4-(4-Fluoro-phenyl)-2-(2-quinolin-2-yl-ethyl)-2,3-dihydro-isoindol-1-one trifluoroacetate]
- IC50: 0.2 to 0.5 µM

SMILES: Cn1c(CCN2Cc3cccc(-c4ccncc4)c3C2=O)nc2cc(F)ccc21 [Example 221, 2-[2-(5-Fluoro-1-methyl-1H-benzoimidazol-2-yl)-ethyl]-7-pyridin-4-yl-2,3-dihydro-isoindol-1-one trifluoroacetate]
- IC50: < 0.1 µM

SMILES: CCn1c(CCN2Cc3cccc(-c4ccncc4)c3C2=O)nc2ccccc21 [Example 222, 2-[2-(1-Ethyl-1H-benzoimidazol-2-yl)-ethyl]-7-pyridin-4-yl-2,3-dihydro-isoindol-1-one trifluoroacetate]
- IC50: < 0.1 µM

SMILES: O=C1c2cccc(-c3cn[nH]c3)c2CN1CCc1ccc2ccccc2n1 [Example 225, 4-(1H-Pyrazol-4-yl)-2-(2-quinolin-2-yl-ethyl)-2,3-dihydro-isoindol-1-one]
- IC50: < 0.1 µM

SMILES: O=C1c2c(cccc2-c2ccc3cn[nH]c3c2)CN1CCc1cn2ccccc2n1 [Example 243, 2-(2-Imidazo[1,2-a]pyridin-2-yl-ethyl)-7-(1H-indazol-6-yl)-2,3-dihydro-isoindol-1-one]
- IC50: < 0.1 µM

SMILES: O=C1c2cccc(OCc3ccncc3)c2C(=O)N1CCc1ccc2ccccc2n1 [Example 247, 4-(Pyridin-4-ylmethoxy)-2-(2-quinolin-2-yl-ethyl)-isoindole-1,3-dione]
- IC50: < 0.1 µM

SMILES: O=C1c2c(N3CCC(F)(F)CC3)ccnc2CN1CCc1ccc2ccccc2n1 [Example 258, 4-(4,4-Difluoro-piperidin-1-yl)-6-(2-quinolin-2-yl-ethyl)-6,7-dihydro-pyrrolo[3,4-b]pyridin-5-one]
- IC50: < 0.1 µM

SMILES: O=C1c2c(N3CC4COCC4C3)ccnc2CN1CCc1ccc2ccccc2n1 (stereo not shown) [Example 260, 6-(2-Quinolin-2-yl-ethyl)-4-(tetrahydro-furo[3,4-c]pyrrol-5-yl)-6,7-dihydro-pyrrolo[3,4-b]pyridin-5-one]
- IC50: < 0.1 µM

SMILES: O=C1c2c(C3=COCC3)ccnc2CN1CCc1ccc2ccccc2n1 [Example 266, 4-(4,5-Dihydro-furan-3-yl)-6-(2-quinolin-2-yl-ethyl)-6,7-dihydro-pyrrolo[3,4-b]pyridin-5-one]
- IC50: < 0.1 µM

SMILES: CSCOc1ccc(-c2ccncc2)c2c1CN(CCc1ccc3ccccc3n1)C2=O [Example 267, 4-Methylsulfanylmethoxy-7-pyridin-4-yl-2-(2-quinolin-2-yl-ethyl)-2,3-dihydro-isoindol-1-one]
- IC50: < 0.1 µM

SMILES: O=C1c2c(-c3ccncc3)ccc(OC(F)F)c2CN1CCc1ccc2ccccc2n1 [Example 268, 4-Difluoromethoxy-7-pyridin-4-yl-2-(2-quinolin-2-yl-ethyl)-2,3-dihydro-isoindol-1-one]
- IC50: < 0.1 µM

SMILES: O=C1c2cccc(-c3cccnc3)c2C(=O)N1CCc1ccc2ccccc2n1 [Example 271, 4-Pyridin-3-yl-2-(2-quinolin-2-yl-ethyl)-isoindole-1,3-dione]
- IC50: < 0.1 µM

SMILES: CNCOc1ccc(-c2ccncc2)c2c1CN(CCc1ccc3ccccc3n1)C2=O [Example 276, 4-Methylaminomethoxy-7-pyridin-4-yl-2-(2-quinolin-2-yl-ethyl)-2,3-dihydro-isoindol-1-one]
- IC50: < 0.1 µM

SMILES: O=C1c2c(cccc2N2CCCC3NCCCC32)CN1CCc1ccc2ccccc2n1 (stereo not shown) [Example 279, 7-(Octahydro-[1,5]naphthyridin-1-yl)-2-(2-quinolin-2-yl-ethyl)-2,3-dihydro-isoindol-1-one trifluoroacetate]
- IC50: 0.2 to 0.5 µM

SMILES: N#Cc1ccc(-c2cccc3c2C(=O)N(CCc2ccc4ccccc4n2)C3)s1 [Example 281, 5-[3-oxo-2-(2-quinolin-2-yl-ethyl)-2,3-dihydro-1H-isoindol-4-yl]-thiophene-2-carbonitrile]
- IC50: < 0.1 µM

SMILES: O=C1c2c(cccc2-c2ccncc2)CN1CCc1nc2ccccc2n1CCN1CCOCC1 [Example 292, 2-{2-[1-(2-Morpholin-4-yl-ethyl)-1H-benzoimidazol-2-yl]-ethyl}-7-pyridin-4-yl-2,3-dihydro-isoindol-1-one trifluoroacetate]
- IC50: < 0.1 µM

SMILES: CN(C)CCn1c(CCN2Cc3cccc(-c4ccncc4)c3C2=O)nc2ccccc21 [Example 293, 2-{2-[1-(2-Dimethylamino-ethyl)-1H-benzoimidazol-2-yl]-ethyl}-7-pyridin-4-yl-2,3-dihydro-isoindol-1-one trifluoroacetate]
- IC50: < 0.1 µM

SMILES: O=C1c2c(-c3ccncc3)ccc(OCF)c2CN1CCc1ccc2ccccc2n1 [Example 299, 4-Fluoromethoxy-7-pyridin-4-yl-2-(2-quinolin-2-yl-ethyl)-2,3-dihydro-isoindol-1-one]
- IC50: < 0.1 µM

SMILES: Cc1ccc2c(c1)nc(CCN1Cc3cccc(-c4ccncc4)c3C1=O)n2C [Example 301, 2-[2-(1,5-Dimethyl-1H-benzoimidazol-2-yl)-ethyl]-7-pyridin-4-yl-2,3-dihydro-isoindol-1-one trifluoroacetate]
- IC50: < 0.1 µM

SMILES: CCCn1c(CCN2Cc3cccc(-c4ccncc4)c3C2=O)nc2ccccc21 [Example 302, 2-[2-(1-Propyl-1H-benzoimidazol-2-yl)-ethyl]-7-pyridin-4-yl-2,3-dihydro-isoindol-1-one trifluoroacetate]
- IC50: < 0.1 µM

SMILES: CC(C)n1c(CCN2Cc3cccc(-c4ccncc4)c3C2=O)nc2ccccc21 [Example 303, 2-[2-(1-Isopropyl-1H-benzoimidazol-2-yl)-ethyl]-7-pyridin-4-yl-2,3-dihydro-isoindol-1-one trifluoroacetate]
- IC50: 0.1 to 0.2 µM

SMILES: CC(C)n1c(CCN2Cc3cccc(N4CCOCC4)c3C2=O)nc2ccccc21 [Example 304, 2-[2-(1-Isopropyl-1H-benzoimidazol-2-yl)-ethyl]-7-morpholin-4-yl-2,3-dihydro-isoindol-1-one trifluoroacetate]
- IC50: 0.1 to 0.2 µM

SMILES: CCCn1c(CCN2Cc3cccc(N4CCOCC4)c3C2=O)nc2ccccc21 [Example 305, 7-Morpholin-4-yl-2-[2-(1-propyl-1H-benzoimidazol-2-yl)-ethyl]-2,3-dihydro-isoindol-1-one trifluoroacetate]
- IC50: 0.2 to 0.5 µM

SMILES: Cn1c(CCN2Cc3cccc(N4CCOCC4)c3C2=O)nc2c(F)cccc21 [Example 307, 2-[2-(4-Fluoro-1-methyl-1H-benzoimidazol-2-yl)-ethyl]-7-morpholin-4-yl-2,3-dihydro-isoindol-1-one trifluoroacetate]
- IC50: 0.2 to 0.5 µM

SMILES: O=C1c2c(C3CCOC3)ccnc2CN1CCc1ccc2ccccc2n1 (stereo not shown) [Example 309, 6-(2-Quinolin-2-yl-ethyl)-4-(tetrahydro-furan-3-yl)-6,7-dihydro-pyrrolo[3,4-b]pyridin-5-one]
- IC50: < 0.1 µM

SMILES: CCOC(=O)C1CCN(c2ccnc3c2C(=O)N(CCc2ccc4ccccc4n2)C3)CC1 [Example 319, 1-[5-Oxo-6-(2-quinolin-2-yl-ethyl)-6,7-dihydro-5H-pyrrolo[3,4-b]pyridin-4-yl]-piperidine-4-carboxylic acid ethyl ester]
- IC50: 0.2 to 0.5 µM

SMILES: CN1CCN(S(=O)(=O)c2cccc3c2CN(c2cccc4c2CN(CCc2ccc5ccccc5n2)C4=O)CC3)CC1 [Example 321, 4-[8-(4-Methyl-piperazine-1-sulfonyl)-3,4-dihydro-1H-isoquinolin-2-yl]-2-(2-quinolin-2-yl-ethyl)-2,3-dihydro-isoindol-1-one]
- IC50: 0.2 to 0.5 µM
